Target: thyroid hormone receptor β (TRβ) (Homo sapiens, UniProt P10828)
Test: biochemical

Sequence of thyroid hormone receptor β (TRβ) (P10828 82-456): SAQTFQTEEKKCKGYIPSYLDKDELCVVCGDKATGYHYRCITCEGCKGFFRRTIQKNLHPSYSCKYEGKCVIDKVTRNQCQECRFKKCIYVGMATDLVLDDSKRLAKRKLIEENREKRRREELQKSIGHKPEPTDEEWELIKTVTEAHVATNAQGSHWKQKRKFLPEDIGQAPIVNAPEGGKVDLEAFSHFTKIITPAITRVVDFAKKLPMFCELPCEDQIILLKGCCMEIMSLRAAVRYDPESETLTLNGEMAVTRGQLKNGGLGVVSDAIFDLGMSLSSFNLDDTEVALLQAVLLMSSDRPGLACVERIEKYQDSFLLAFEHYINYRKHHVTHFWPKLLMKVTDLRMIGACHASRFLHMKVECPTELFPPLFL
Sequence of thyroid hormone receptor β (TRβ) (P19793 whole entry partner): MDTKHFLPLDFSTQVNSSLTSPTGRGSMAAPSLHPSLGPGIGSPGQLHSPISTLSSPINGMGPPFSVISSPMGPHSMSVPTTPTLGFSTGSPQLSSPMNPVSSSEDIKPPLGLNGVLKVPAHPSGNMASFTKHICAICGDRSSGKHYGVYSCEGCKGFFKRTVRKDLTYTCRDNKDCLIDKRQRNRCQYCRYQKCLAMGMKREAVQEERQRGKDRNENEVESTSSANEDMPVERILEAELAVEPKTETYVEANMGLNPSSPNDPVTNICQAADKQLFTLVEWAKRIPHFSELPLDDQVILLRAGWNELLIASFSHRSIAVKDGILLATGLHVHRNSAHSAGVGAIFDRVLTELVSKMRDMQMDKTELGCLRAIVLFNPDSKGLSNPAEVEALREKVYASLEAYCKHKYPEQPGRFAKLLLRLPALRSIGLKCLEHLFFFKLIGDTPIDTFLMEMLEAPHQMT
Sequence of thyroid hormone receptor β (TRβ) (Q60974 2057-2453 partner): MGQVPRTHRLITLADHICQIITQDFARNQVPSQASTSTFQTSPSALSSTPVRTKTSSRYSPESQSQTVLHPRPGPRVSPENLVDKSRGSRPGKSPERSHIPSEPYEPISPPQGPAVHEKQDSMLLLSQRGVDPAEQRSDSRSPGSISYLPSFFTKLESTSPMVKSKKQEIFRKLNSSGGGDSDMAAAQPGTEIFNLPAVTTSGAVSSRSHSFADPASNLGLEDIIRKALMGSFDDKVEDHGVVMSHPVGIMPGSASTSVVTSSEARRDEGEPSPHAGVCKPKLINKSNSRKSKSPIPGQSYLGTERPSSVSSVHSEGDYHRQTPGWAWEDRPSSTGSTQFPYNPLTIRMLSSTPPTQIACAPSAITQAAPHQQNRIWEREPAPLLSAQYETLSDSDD
Sequence of thyroid hormone receptor β (TRβ) (Q9Y6Q9 627-829 partner): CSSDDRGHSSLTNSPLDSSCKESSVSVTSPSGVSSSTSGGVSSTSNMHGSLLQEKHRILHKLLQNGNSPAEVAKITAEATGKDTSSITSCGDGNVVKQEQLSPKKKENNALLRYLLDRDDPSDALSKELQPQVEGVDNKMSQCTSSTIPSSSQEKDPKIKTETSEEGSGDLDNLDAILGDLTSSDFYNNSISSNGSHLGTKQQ

With `Cc1cc(OCC(=O)O)cc(C)c1Cc1cc(C#Cc2ccc([N+](=O)[O-])cc2)c(O)c(C(C)C)c1` [NH-3, {4-[4-hydroxy-3’-isopropyl-5-(4-nitrophenylethynyl)benzyl]-3,5-dimethylphenoxy}acetic acid] the IC50 was 1090 ± 80 nM.
